Values of other authors, collected in patent publication US6815424B2, “Intranasal administration of polypeptides in powdered form” (Pfizer Corporation, priority 1987, dated 2004).

Conditions: in vivo, inhaled or intranasal

CC(C)C[C@H](NC(=O)[C@@H](Cc1ccc2ccccc2c1)NC(=O)[C@H](Cc1ccc(O)cc1)NC(=O)[C@H](CO)NC(=O)[C@H](Cc1c[nH]c2ccccc12)NC(=O)[C@H](Cc1c[nH]cn1)NC(=O)[C@@H]1CCC(=O)N1)C(=O)N[C@@H](CCCNC(=N)N)C(=O)N1CCC[C@H]1C(=O)NCC(N)=O [nafarelin acetate, L-pyroglutamyl-L-histidyl-L-tryptophyl-L-seryl-L-tyrosyl-D-3-(2-naphthyl)alanyl-L-leucyl-L-arginyl-L-prolyl-glycinamide]
bioavailability compared to injection: about 2%
